Laboratory results from the NIST ThermoML archive (doi:10.1016/j.jct.2012.09.012).
Numbers after ± are expanded uncertainties.

Assay: xn = mol fraction of the nth substance listed
Conditions: Liquid, Vibrating tube method

CC1=CC[C@H]2C[C@@H]1C2(C)C [(S)-2-pinene] + C=C1CCC2CC1C2(C)C
mass density [kg/m3]
Conditions | x1 = 0.1044 | x1 = 0.1926 | x1 = 0.3036 | x1 = 0.3949 | x1 = 0.502 | x1 = 0.6052 | x1 = 0.7022 | x1 = 0.7983 | x1 = 0.9028 | x1 = 1
283.15 K, 20000 kPa | 890.1 ± 1.1 | 889 ± 1.1 | 887.9 ± 1.1 | 886.9 ± 1.1 | 885.7 ± 1.1 | 884.7 ± 1.1 | 883.4 ± 1.2 | 882.3 ± 1.2 | 881.1 ± 1.2 | 880 ± 1.2
283.15 K, 25000 kPa | 893.1 ± 1.1 | 891.9 ± 1.1 | 890.9 ± 1.1 | 889.9 ± 1.1 | 888.7 ± 1.1 | 887.8 ± 1.1 | 886.6 ± 1.2 | 885.4 ± 1.2 | 884.3 ± 1.2 | 883.2 ± 1.2
283.15 K, 30000 kPa | 896 ± 1.1 | 894.8 ± 1.1 | 893.7 ± 1.1 | 892.9 ± 1.1 | 891.6 ± 1.1 | 890.7 ± 1.1 | 889.3 ± 1.2 | 888.5 ± 1.2 | 887.4 ± 1.2 | 886.3 ± 1.3
283.15 K, 35000 kPa | 898.9 ± 1.1 | 897.7 ± 1.1 | 896.7 ± 1.1 | 895.8 ± 1.1 | 894.7 ± 1.1 | 893.7 ± 1.2 | 892.5 ± 1.2 | 891.6 ± 1.2 | 890.3 ± 1.2 | 889.4 ± 1.3
283.15 K, 40000 kPa | 901.7 ± 1.1 | 900.6 ± 1.1 | 899.4 ± 1.1 | 898.6 ± 1.1 | 897.5 ± 1.1 | 896.6 ± 1.2 | 895.3 ± 1.2 | 894.6 ± 1.2 | 893.5 ± 1.3 | 892.5 ± 1.3
298.15 K, 20000 kPa | 879.6 ± 1.1 | 878.2 ± 1.1 | 876.9 ± 1.1 | 875.8 ± 1.1 | 874.6 ± 1.1 | 873.4 ± 1.1 | 872.3 ± 1.2 | 871.2 ± 1.2 | 870 ± 1.2 | 868.8 ± 1.2
298.15 K, 25000 kPa | 882.5 ± 1.1 | 881.3 ± 1.1 | 880 ± 1.1 | 879 ± 1.1 | 877.8 ± 1.1 | 876.7 ± 1.1 | 875.6 ± 1.2 | 874.5 ± 1.2 | 873.3 ± 1.2 | 872.1 ± 1.2
298.15 K, 30000 kPa | 885.3 ± 1.1 | 884.2 ± 1.1 | 883 ± 1.1 | 882 ± 1.1 | 880.8 ± 1.1 | 879.7 ± 1.1 | 878.8 ± 1.2 | 877.6 ± 1.2 | 876.4 ± 1.2 | 875.3 ± 1.3
298.15 K, 35000 kPa | 888.3 ± 1.1 | 887.3 ± 1.1 | 886.1 ± 1.1 | 885.1 ± 1.1 | 884 ± 1.1 | 882.9 ± 1.2 | 882 ± 1.2 | 880.8 ± 1.2 | 879.7 ± 1.2 | 878.6 ± 1.3
298.15 K, 40000 kPa | 891.1 ± 1.1 | 890.2 ± 1.1 | 889.1 ± 1.1 | 888 ± 1.1 | 887.1 ± 1.1 | 886 ± 1.2 | 885.1 ± 1.2 | 884 ± 1.2 | 882.9 ± 1.3 | 881.9 ± 1.3
313.15 K, 20000 kPa | 868 ± 1.1 | 867 ± 1.1 | 865.9 ± 1.1 | 864.9 ± 1.1 | 863.6 ± 1.1 | 862.6 ± 1.1 | 861.4 ± 1.2 | 860.3 ± 1.2 | 859 ± 1.2 | 858 ± 1.2
313.15 K, 25000 kPa | 871.4 ± 1.1 | 870.3 ± 1.1 | 869.2 ± 1.1 | 868.2 ± 1.1 | 867 ± 1.1 | 865.8 ± 1.1 | 864.7 ± 1.2 | 863.6 ± 1.2 | 862.4 ± 1.2 | 861.3 ± 1.2
313.15 K, 30000 kPa | 874.6 ± 1.1 | 873.5 ± 1.1 | 872.4 ± 1.1 | 871.4 ± 1.1 | 870.2 ± 1.1 | 869.1 ± 1.2 | 868 ± 1.2 | 866.9 ± 1.2 | 865.7 ± 1.2 | 864.7 ± 1.3
313.15 K, 35000 kPa | 877.8 ± 1.1 | 876.7 ± 1.1 | 875.5 ± 1.1 | 874.6 ± 1.1 | 873.4 ± 1.1 | 872.3 ± 1.2 | 871.2 ± 1.2 | 870.2 ± 1.2 | 869.1 ± 1.2 | 867.9 ± 1.3
313.15 K, 40000 kPa | 881.1 ± 1.1 | 879.9 ± 1.1 | 878.7 ± 1.1 | 877.8 ± 1.1 | 876.6 ± 1.1 | 875.5 ± 1.2 | 874.5 ± 1.2 | 873.5 ± 1.2 | 872.4 ± 1.3 | 871.3 ± 1.3
328.15 K, 20000 kPa | 857.2 ± 1.1 | 855.9 ± 1.1 | 855 ± 1.1 | 853.7 ± 1.1 | 852.5 ± 1.1 | 851.3 ± 1.1 | 850.2 ± 1.2 | 849.1 ± 1.2 | 847.9 ± 1.2 | 846.7 ± 1.2
328.15 K, 25000 kPa | 860.6 ± 1.1 | 859.5 ± 1.1 | 858.3 ± 1.1 | 857.2 ± 1.1 | 856.1 ± 1.1 | 854.9 ± 1.1 | 853.8 ± 1.2 | 852.7 ± 1.2 | 851.5 ± 1.2 | 850.4 ± 1.2
328.15 K, 30000 kPa | 864.1 ± 1.1 | 863.1 ± 1.1 | 862 ± 1.1 | 860.8 ± 1.1 | 859.6 ± 1.1 | 858.5 ± 1.2 | 857.4 ± 1.2 | 856.3 ± 1.2 | 855.1 ± 1.2 | 854 ± 1.3
328.15 K, 35000 kPa | 867.5 ± 1.1 | 866.6 ± 1.1 | 865.4 ± 1.1 | 864.3 ± 1.1 | 863.1 ± 1.1 | 861.9 ± 1.2 | 860.9 ± 1.2 | 859.8 ± 1.2 | 858.6 ± 1.2 | 857.5 ± 1.3
328.15 K, 40000 kPa | 870.8 ± 1.1 | 870 ± 1.1 | 868.9 ± 1.1 | 867.7 ± 1.1 | 866.6 ± 1.2 | 865.5 ± 1.2 | 864.3 ± 1.2 | 863.4 ± 1.2 | 862.1 ± 1.3 | 861.1 ± 1.3
343.15 K, 20000 kPa | 846.7 ± 1.1 | 845.5 ± 1.1 | 844.3 ± 1.1 | 843.2 ± 1.1 | 841.9 ± 1.1 | 840.7 ± 1.1 | 839.4 ± 1.2 | 838.3 ± 1.2 | 837 ± 1.2 | 835.9 ± 1.2
343.15 K, 25000 kPa | 850.5 ± 1.1 | 849.3 ± 1.1 | 848.1 ± 1.1 | 847 ± 1.1 | 845.7 ± 1.1 | 844.6 ± 1.1 | 843.3 ± 1.2 | 842.1 ± 1.2 | 840.9 ± 1.2 | 839.7 ± 1.2
343.15 K, 30000 kPa | 854.2 ± 1.1 | 853 ± 1.1 | 851.9 ± 1.1 | 850.9 ± 1.1 | 849.6 ± 1.1 | 848.5 ± 1.2 | 847.2 ± 1.2 | 846.2 ± 1.2 | 844.9 ± 1.2 | 843.8 ± 1.3
343.15 K, 35000 kPa | 857.7 ± 1.1 | 856.6 ± 1.1 | 855.5 ± 1.1 | 854.5 ± 1.1 | 853.3 ± 1.1 | 852.2 ± 1.2 | 851 ± 1 | 850 ± 1 | 848.7 ± 1.3 | 847.7 ± 1.3
343.15 K, 40000 kPa | 861.3 ± 1.1 | 860.2 ± 1.1 | 859.1 ± 1.1 | 858.1 ± 1.1 | 857 ± 1.2 | 855.9 ± 1.2 | 854.7 ± 1.2 | 853.7 ± 1.2 | 852.4 ± 1.3 | 851.4 ± 1.3
358.15 K, 20000 kPa | 835.9 ± 1.1 | 834.6 ± 1.1 | 833.3 ± 1.1 | 832.2 ± 1.1 | 831 ± 1.1 | 829.8 ± 1.1 | 828.5 ± 1.2 | 827.3 ± 1.2 | 826.1 ± 1.2 | 825 ± 1.2
358.15 K, 25000 kPa | 839.8 ± 1.1 | 838.6 ± 1.1 | 837.4 ± 1.1 | 836.3 ± 1.1 | 835 ± 1.1 | 833.9 ± 1.1 | 832.7 ± 1.2 | 831.5 ± 1.2 | 830.3 ± 1.2 | 829.2 ± 1.2
358.15 K, 30000 kPa | 843.7 ± 1.1 | 842.5 ± 1.1 | 841.3 ± 1.1 | 840.3 ± 1.1 | 839 ± 1.1 | 838 ± 1.2 | 836.7 ± 1.2 | 835.6 ± 1.2 | 834.4 ± 1.2 | 833.3 ± 1.3
358.15 K, 35000 kPa | 847.6 ± 1.1 | 846.4 ± 1.1 | 845.2 ± 1.1 | 844.2 ± 1.1 | 843 ± 1.2 | 841.8 ± 1.2 | 840.7 ± 1.2 | 839.6 ± 1.2 | 838.4 ± 1.3 | 837.4 ± 1.3
358.15 K, 40000 kPa | 851.5 ± 1.1 | 850.4 ± 1.1 | 849.1 ± 1.1 | 848.2 ± 1.1 | 847.1 ± 1.2 | 846 ± 1.2 | 844.8 ± 1.2 | 843.8 ± 1.2 | 842.6 ± 1.3 | 841.5 ± 1.3
